Experiment [1] concerns the target T1, dopamine transporter (DAT) (Rattus norvegicus, UniProt P23977). As to the kind of experiment: biochemical. The settings on record: for DA/5-HT Ratio: ratio of release potencies.
For experiment [2], the system named is vesicular monoamine transporter 2 (VMAT2). The settings on record: measured with Tyramine, ref Partilla et al., 2006, cited from earlier work; for EC50: read-out: VMAT2 Release EC50.
The target in experiment [3] is T1, dopamine transporter (DAT). As to the kind of experiment: DAT uptake inhibition assay. Format: biochemical.
For experiment [4] the following is noted: cited from earlier work.
For experiment [5], the system named is CB1Rs. Conditions: increased efficacy of CP 55940 in calcium mobilization; ref Navarro et al., 2009; cited from earlier work.
The test system of experiment [6] is mice. The settings on record: cited from earlier work.
Experiment [7] addresses T2, SERT (Rattus norvegicus, UniProt P31652). Conditions: read-out: 5-HT Release EC50; rat brain synaptosomes; ref Yu et al., 2000; cited from earlier work.
The target of experiment [8] is T1, dopamine transporter (DAT). The settings on record: read-out: DAT UI IC50; rat brain synaptosomes; ref Yu et al., 2000; cited from earlier work.
Experiment [9] has as its system rats. Conditions: ref Rothman et al., 2005; cited from earlier work.
The conditions of experiment [10]: compared to amphetamine; ref Rothman et al., 2005; cited from earlier work.
The target in experiment [11] is T2, SERT. As to the kind of experiment: 5-HT release assay in synaptosomes. Format: biochemical. The settings on record: read-out: 5-HT Release EC50; rat brain synaptosomes; mean ± SD, n=3; Table 4.
Experiment [12] concerns rats. Kind of experiment: In vivo microdialysis in the n. accumbens. The settings on record: male rats, 1 or 3 mg/kg i.v.; for extracellular (dialysate) DA in n. accumbens: Fig. 7, Fig. 8.
The test system of experiment [13] is rats. As to the kind of experiment: Horizontal locomotor activity. Format: in vivo. The settings on record: male rats, 1 or 3 mg/kg i.v.; Fig. 7, Fig. 8.
The subject of experiment [14] is sigma receptors. Conditions: ref Hiranita et al., 2014; cited from earlier work.
Experiment [15] relates to rats. Conditions: ref Hiranita et al., cited from earlier work; for effect on cocaine self-administration dose-effect curve: rats, 2014.
For experiment [16], the system named is rats. Conditions: ref Hiranita et al., 2014; cited from earlier work.
Experiment [17] relates to rats. The settings on record: rats trained to discriminate cocaine from saline; ref Carroll et al., 2004; cited from earlier work.
Experiment [18] deals with mice. Conditions: range of behaviorally active doses, ref Carroll et al., 2004; cited from earlier work.
The test system of experiment [19] is DAT. The settings on record: highest dose studied, 56 mg/kg; ref Hiranita et al., 2014; cited from earlier work.
In experiment [20] the test system is rats. The settings on record: ref Katz et al., 1999b; cited from earlier work.
Experiment [21] has as its system DAT Y335A. Conditions: ref Loland et al., 2008; cited from earlier work.
Experiment [22] relates to mice. The settings on record: mice trained to discriminate cocaine (10 mg/kg) from saline; ref Loland et al. 2012; cited from earlier work.
For experiment [23] the following is noted: ref Loland et al., 2012; cited from earlier work.
The test system of experiment [24] is human. Conditions: humans; ref Dackis et al., 2003; Malcolm et al., 2006; Hart et al., 2008; cited from earlier work.
Setting [25] is: read-out: DAT UI IC50, rat brain synaptosomes, mean ± SD, n=3, Table 3.
Setting [26] is: rat brain synaptosomes, % maximal release, Table 3.
Setting [27] is: read-out: DA Release EC50, rat brain synaptosomes, mean ± SD, n=3, Table 3.
The mark [28] stands for this setting: rat brain synaptosomes, Table 4.
Where [29] appears, read: read-out: DA Release EC50, rat brain synaptosomes, mean ± SD, n=3, Table 4.

Each structure is given as a SMILES string. Entries after “also recorded” stand apart in the source; their conditions may differ. Read-outs that look alike come from different tables or passages of the source.

T2 sequence (P31652 whole entry): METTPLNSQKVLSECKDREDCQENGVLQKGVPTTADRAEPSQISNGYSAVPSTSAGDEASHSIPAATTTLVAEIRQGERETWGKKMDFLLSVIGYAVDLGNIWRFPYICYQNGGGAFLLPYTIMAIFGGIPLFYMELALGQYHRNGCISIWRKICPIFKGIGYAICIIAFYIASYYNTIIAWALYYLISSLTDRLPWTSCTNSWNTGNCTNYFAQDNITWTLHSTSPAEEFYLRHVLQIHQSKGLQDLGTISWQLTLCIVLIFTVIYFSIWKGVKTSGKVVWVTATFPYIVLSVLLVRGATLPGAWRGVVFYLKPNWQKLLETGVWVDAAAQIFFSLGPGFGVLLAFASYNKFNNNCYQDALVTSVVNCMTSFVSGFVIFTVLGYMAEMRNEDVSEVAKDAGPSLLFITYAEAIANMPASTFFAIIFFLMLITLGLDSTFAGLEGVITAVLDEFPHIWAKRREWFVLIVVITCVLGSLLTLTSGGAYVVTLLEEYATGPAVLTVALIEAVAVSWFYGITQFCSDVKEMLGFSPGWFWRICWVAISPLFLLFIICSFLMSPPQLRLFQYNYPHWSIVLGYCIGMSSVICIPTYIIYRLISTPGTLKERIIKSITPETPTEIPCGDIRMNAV
T1 sequence (P23977 whole entry): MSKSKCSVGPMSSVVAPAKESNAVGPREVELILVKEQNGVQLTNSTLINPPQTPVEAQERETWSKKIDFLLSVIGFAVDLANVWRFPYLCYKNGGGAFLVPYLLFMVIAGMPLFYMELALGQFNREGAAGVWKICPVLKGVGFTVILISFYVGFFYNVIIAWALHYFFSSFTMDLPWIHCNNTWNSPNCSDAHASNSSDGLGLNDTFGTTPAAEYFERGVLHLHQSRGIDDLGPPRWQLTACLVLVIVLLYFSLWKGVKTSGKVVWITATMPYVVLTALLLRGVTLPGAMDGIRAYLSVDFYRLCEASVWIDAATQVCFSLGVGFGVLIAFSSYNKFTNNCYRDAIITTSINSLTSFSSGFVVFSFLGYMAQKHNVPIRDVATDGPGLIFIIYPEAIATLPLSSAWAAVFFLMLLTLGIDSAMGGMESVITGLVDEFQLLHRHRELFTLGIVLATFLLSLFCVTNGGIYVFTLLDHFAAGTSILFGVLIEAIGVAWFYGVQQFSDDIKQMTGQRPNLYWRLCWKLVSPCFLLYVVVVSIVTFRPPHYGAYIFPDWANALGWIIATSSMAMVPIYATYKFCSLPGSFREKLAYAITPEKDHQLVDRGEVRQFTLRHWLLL

As to `CC1NCCOC1c1ccccc1` (single isomer, unassigned; (+)) [(+)-Phenmetrazine], the EC50 in [1] is 87.4 ± 7.8 nM. In experiment [2], the “VMAT2 Release EC50 (μM)” value was “completely inactive” and the concentration giving a half-maximal response (EC50) was above 100 µM.
Regarding `CC(N)Cc1ccccc1` (stereo not drawn) [Amphetamine], the concentration giving a half-maximal response (EC50) in experiment [2] was […].
For `c1ccc(CN2CCNCC2)cc1` [Benzylpiperazine], the EC50 in experiment [1] (read-out: DAT Release EC50, mean ± SD, n=3, Table 5) is 307 ± 19 nM. For the same compound, in experiment [2], the “VMAT2 Release EC50 (μM)” value is on record as “lack VMAT2 activity” and the EC50 was above 100 µM.
Take `CC(NC(C)(C)C)C(=O)c1cccc(Cl)c1` (stereo not drawn) [Bupropion]: the IC50 in experiment [3] turned out to be 658 ± 178 nM.
Turning to `Fc1ccc(C(O[C@H]2C[C@H]3CC[C@@H](C2)N3CC2CC2)c2ccc(F)cc2)cc1` [JHW013], the locomotor activity entry in [4] (fast-onset BZT analogs, ref Li et al., 2011) was “stimulant effects that were substantially reduced compared to those of cocaine”.
Take `CCCCN1[C@@H]2CC[C@H]1CC(OC(c1ccc(F)cc1)c1ccc(F)cc1)C2` (stereo partly drawn) [JHW 007]: the “modulation of CB1Rs” value in experiment [5] is recorded as “positive-allosteric modulation of CB1Rs”. In addition, the “effect on cocaine-induced locomotor stimulation” value was “significantly blunted the locomotor stimulant effects of cocaine” in experiment [6] (CB1R wild-type and knockout mice, co-injection, ref Desai et al., 2014); “blocked the stimulant effects of cocaine equally in both knockout and wild-type mice” in [6] (DA D2R knockout and wild-type mice, ref Desai et al., 2014).
As for `CNC(C)Cc1ccc2c(c1)OCO2` (stereo not drawn) [MDMA], the “DA Release EMAX” value in experiment [1] worked out at 103 ± 2%. The EC50 in experiment [1] (read-out: DA Release EC50) is 108 ± 10 nM.
As for `CCCC(C(=O)c1ccc2c(c1)OCO2)N1CCCC1` (stereo not drawn) [MDPV], the IC50 in experiment [3] (setting [25]) came to 4.1 ± 0.06 nM.
`CNC(C)C(=O)c1ccc(C)cc1` (stereo not drawn) [Mephedrone]: in [1], the EC50 was determined as 49.1 ± 3.1 nM.
In experiment [1], `CN[C@@H](C)Cc1ccccc1` [Methamphetamine] returned an EC50 of 24.5 ± 2.1 nM.
`CCNC(C)C(=O)c1ccccc1` (stereo not drawn) [N-Ethylpropion]: the EC50 in [7] was 2120 ± 98 nM. Moreover, the IC50 in experiment [8] is 1010 ± 80 nM.
Regarding `CCNC(C)Cc1ccccc1` (stereo not drawn) [PAL-99], the “DA Release EMAX” value in experiment [1] (setting [26]) was found to be 111 ± 13%.
As to `Cc1ccccc1N1CCNCC1` [PAL-169, 2-Methylphenylpiperazine], the “DA Release EMAX” value in experiment [1] (setting [26]) was 90 ± 1%. In experiment [1] (setting [27]), the EC50 was 296 ± 20 nM.
Consider `Cc1cccc(N2CCNCC2)c1C` [PAL-218, 2,3-Dimethylphenylpiperazine], for which the “DA Release EMAX” value in experiment [1] (setting [26]) came out at 66 ± 1%. In experiment [1] (setting [27]), the EC50 was 1210 ± 118 nM.
Take `Cc1ccc(N2CCNCC2)cc1` [PAL-233, 4-Methylphenylpiperazine]: in [3] (setting [25]), the IC50 came out at 9520 ± 436 nM.
Regarding `CC(N)Cc1ccc2ccccc2c1` (stereo not drawn) [PAL-287], the “DA release in vivo (microdialysis)” value in experiment [9] is “released much less DA than expected”. In addition, the EC50 in experiment [2] was 1.25 ± 0.23 µM. The locomotor stimulant effect result in experiment [4] (compared to amphetamine, ref Rothman et al., 2005) was “weak locomotor stimulant”. In addition, the reinforcing effects result in experiment [10] was “lacked strong reinforcing effects”.
As to `CC(N)Cc1ccc(F)cc1` (stereo not drawn) [PAL-303], the EC50 is 939 ± 76 nM in experiment [11] and 51.5 ± 1.7 nM in [1] (setting [29]). Besides, the “DA/5-HT Ratio” value in experiment [1] (setting [28]) was found to be 18.
Consider `Cc1ccc(CC(C)N)cc1` (stereo not drawn) [PAL-313], for which the figures for the concentration for a half-maximal effect (EC50) in experiment [11] and in experiment [1] (setting [29]) were 53.4 ± 4.1 nM and 44.1 ± 2.6 nM, respectively. The “extracellular (dialysate) DA in n. accumbens” value in experiment [12] is listed as “lowest level of DA release in vivo”. For the same compound, the “extracellular 5-HT in n. accumbens” value in [12] (Fig. 8) was “highest level of 5-HT release”. For the same compound, the “locomotor stimulation (horizontal locomotor activity)” value in experiment [13] was “lowest levels of locomotor stimulation”. Further, in experiment [1] (setting [28]), the “DA/5-HT Ratio” value was 1.2.
In the case of `Cc1cccc(CC(C)N)c1` (stereo not drawn) [PAL-314], the EC50 in [11] is 218 ± 22 nM; in experiment [1] (setting [29]) it was 33.3 ± 1.3 nM. Further, the “DA/5-HT Ratio” value in [1] (setting [28]) was 6.5.
On to `CC(N)Cc1cccc(F)c1` (stereo not drawn) [PAL-353], for which the values for the EC50 in [11] and in [1] (setting [29]) were 1940 ± 202 nM and 24.2 ± 1.1 nM, respectively. The “DA/5-HT Ratio” value in experiment [1] (setting [28]) is 80.
Regarding `CCCNC(C)C(=O)c1ccccc1` (stereo not drawn) [PAL-359], the “DA UI IC50 (nM)” value in experiment [3] (rat brain synaptosomes, mean ± SD, n=3 in triplicate, Table 1) was “inactive”.
In the case of `CCN[C@@H](C)Cc1ccc2ccccc2c1` [PAL-1045], in [12], the “extracellular (dialysate) DA in n. accumbens” value is “extracellular DA concentrations increase; also recorded: magnitude of effect on dialysate DA is lower than that of a full efficacy releaser”. Besides, in [13], the “locomotor stimulation (horizontal locomotor activity)” value is given as “smaller when compared to the full efficacy releaser”. Besides, the “DA Release EMAX” value in experiment [1] (setting [26]) worked out at 78 ± 5%. Besides, the EC50 in [1] (setting [27]) was 46 ± 11 nM.
For the compound `CNC(C)Cc1ccc2ccccc2c1` (stereo not drawn) [PAL-1046], the “DA Release EMAX” value in experiment [1] (setting [26]) worked out at 101 ± 3%. In addition, the 50% effective concentration (EC50) in [1] (setting [27]) stood at 10 ± 1 nM.
In turn, `NCCc1ccccc1` [Phenethylamine] displayed an EC50 in experiment [1] of 39.5 ± 1.8 nM.
The compound `CC(C)(N)Cc1ccccc1` [Phentermine] yielded an EC50 in [1] of 262 ± 21 nM. In [2], the “VMAT2 Release EC50 (μM)” value was “lack VMAT2 activity” and the EC50 is above 100 µM.
In the case of `Cc1ccc(-c2cc([C@@H]3C4CCC(C[C@@H]3c3ccc(Cl)cc3)N4C)on2)cc1` (stereo partly drawn) [RTI-336], the “affinity at sigma receptors” value in experiment [14] is on record as “relatively low affinity at sigma receptors”. Besides, the “effect on cocaine self-administration dose-effect curve” value in experiment [15] is “dose-related leftward shifts in the cocaine self-administration dose effect curve”. In experiment [16], the “self-administration of the compound versus vehicle” value is given as “self-administered at levels greater than vehicle”. Also, in experiment [17], the “substitution for cocaine (drug discrimination)” value (“substitution for cocaine” for short) is given as “fully substitutes”.
Take `Cc1ccc([C@H]2C[C@@H]3CC[C@H]([C@H]2c2cc(-c4ccc(Cl)cc4)no2)N3C)cc1` [RTI-371, 3β-(4-methylphenyl)-2β-[3-(4-chlorophenyl)isoxazol-5-yl]tropane]: in experiment [18], the locomotor activity result is recorded as “failed to stimulate locomotor activity”. Moreover, in [5], the “modulation of CB1Rs” value is “positive-allosteric modulation of CB1Rs”. Also, the “rate of displacement of [125I]RTI-121” value in experiment [19] is 0.320 %/min. Moreover, the “affinity at sigma receptors” value in experiment [14] was “relatively low affinity at sigma receptors”. The “effect on cocaine self-administration dose-effect curve” value in [15] is recorded as “dose-related decreases in the maximum self-administration of cocaine”. Besides, in experiment [16], the “self-administration of the compound versus vehicle” value is “not self-administered at rates above those obtained with vehicle”. Further, the “effect on cocaine-induced locomotor stimulation” value in experiment [6] (preliminary report, ref Navarro et al., 2009) was “blocked cocaine-induced locomotor stimulation”. Moreover, the “substitution for cocaine” value in experiment [17] is “did not substitute”.
On to `CN1[C@@H]2CC[C@H]1C[C@@H](OC(=O)C(CO)c1ccccc1)C2` (stereo partly drawn) [atropine], for which the “effect on effects of cocaine in drug discrimination procedures” value in [20] was “potentiation of effects of cocaine”.
For the compound `COC(=O)[C@H]1[C@@H](OC(=O)c2ccccc2)C[C@@H]2CC[C@H]1N2C` [cocaine], the “loss in potency for Y335A compared with wild-type DAT” value in experiment [21] is around 100 fold.
For `NC(=O)C[S+]([O-])C(c1ccccc1)c1ccccc1` (stereo not drawn) [modafinil], the “substitution for cocaine” value in experiment [22] is reported as “fully substituted for cocaine”. In addition, the “DA concentrations in the nucleus accumbens shell” value in experiment [23] is given as “increased DA concentrations in the nucleus accumbens shell, though also to a lesser extent than cocaine”. In experiment [24], the “effect on cocaine-induced euphoria” value was “blunted cocaine-induced euphoria”. Further, the locomotor activity result in experiment [4] (ref Cao et al., 2010) is listed as “stimulated locomotor activity, though to a lesser extent than cocaine”.
For the compound `C[C@@H]1CN(CCCn2c3ccccc3c3ccccc32)C[C@H](C)N1` [rimcazole], the “effect on cocaine self-administration” value in experiment [15] (2011) is on record as “blocked cocaine self-administration”.
Consider `CN1[C@@H]2C[C@@H](OC(=O)[C@H](CO)c3ccccc3)C[C@H]1[C@@H]1O[C@@H]12` [scopolamine], for which the “effect on effects of cocaine in drug discrimination procedures” value in experiment [20] is reported as “potentiation of effects of cocaine”.

Source of the values: paper PMC4297708 (Drug and alcohol dependence, 2014).
